Experimental data as given in PubChem BioAssay (NCI).
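Following 48 hours of exposure in 96-well plates, responses at five concentrations were used to interpolate endpoints linearly. TGI is the concentration that stops growth completely.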

Columns and labels:
Test in all cases: growth of human tumour cells (NCI), 48 h
A549 NSCLC = tested on: A549 NSCLC
DU-145 prostate = tested on: DU-145 prostate
NCI-H23 lung = tested on: NCI-H23 lung
SK-MEL-5 melanoma = tested on: SK-MEL-5 melanoma
MALME-3M melanoma = tested on: MALME-3M melanoma
IGROV1 ovarian = tested on: IGROV1 ovarian
MOLT-4 leukemia = tested on: MOLT-4 leukemia
SF-295 CNS = tested on: SF-295 CNS
RXF 393 renal = tested on: RXF 393 renal
HCT-116 colon = tested on: HCT-116 colon
SF-539 CNS = tested on: SF-539 CNS
SK-OV-3 ovarian = tested on: SK-OV-3 ovarian
HL-60(TB) leukemia = tested on: HL-60(TB) leukemia
UO-31 renal = tested on: UO-31 renal
CCRF-CEM leukemia = tested on: CCRF-CEM leukemia
OVCAR-8 ovarian = tested on: OVCAR-8 ovarian
SW-620 colon = tested on: SW-620 colon
SK-MEL-2 melanoma = tested on: SK-MEL-2 melanoma
HCC-2998 colon = tested on: HCC-2998 colon
UACC-257 melanoma = tested on: UACC-257 melanoma
MDA-MB-231 breast = tested on: MDA-MB-231 breast
NCI/ADR-RES ovarian = tested on: NCI/ADR-RES ovarian
MDA-MB-435 = tested on: MDA-MB-435
HOP-62 NSCLC = tested on: HOP-62 NSCLC
K-562 leukemia = tested on: K-562 leukemia
HOP-92 NSCLC = tested on: HOP-92 NSCLC
COLO 205 colon = tested on: COLO 205 colon
T-47D breast = tested on: T-47D breast
UACC-62 melanoma = tested on: UACC-62 melanoma
786-0 renal = tested on: 786-0 renal
OVCAR-4 ovarian = tested on: OVCAR-4 ovarian
NCI-H460 lung = tested on: NCI-H460 lung
A498 renal = tested on: A498 renal
ACHN renal = tested on: ACHN renal
RPMI-8226 leukemia = tested on: RPMI-8226 leukemia
EKVX NSCLC = tested on: EKVX NSCLC
SNB-19 CNS = tested on: SNB-19 CNS
SR leukemia = tested on: SR leukemia
U251 CNS = tested on: U251 CNS
NCI-H522 lung = tested on: NCI-H522 lung
NCI-H226 lung = tested on: NCI-H226 lung
MCF7 breast = tested on: MCF7 breast
SNB-75 CNS = tested on: SNB-75 CNS
HT29 colon = tested on: HT29 colon
SN12C renal = tested on: SN12C renal
OVCAR-5 ovarian = tested on: OVCAR-5 ovarian
SK-MEL-28 melanoma = tested on: SK-MEL-28 melanoma
CAKI-1 renal = tested on: CAKI-1 renal
HS 578T breast = tested on: HS 578T breast
M14 melanoma = tested on: M14 melanoma
TK-10 renal = tested on: TK-10 renal
SF-268 CNS = tested on: SF-268 CNS
MDA-N = tested on: MDA-N
PC-3 prostate = tested on: PC-3 prostate
HCT-15 colon = tested on: HCT-15 colon
KM12 colon = tested on: KM12 colon
LOX IMVI melanoma = tested on: LOX IMVI melanoma
OVCAR-3 ovarian = tested on: OVCAR-3 ovarian

Cc1ccc(S(=O)(=O)NNC(=O)Nc2ccc(Cl)cc2)cc1
TGI (A549 NSCLC): > 100 µM | TGI (DU-145 prostate): > 100 µM | TGI (NCI-H23 lung): > 100 µM | TGI (SK-MEL-5 melanoma): > 100 µM | TGI (MALME-3M melanoma): > 100 µM | TGI (IGROV1 ovarian): > 100 µM | TGI (MOLT-4 leukemia): > 100 µM | TGI (SF-295 CNS): > 100 µM | TGI (RXF 393 renal): > 100 µM | TGI (HCT-116 colon): > 100 µM | TGI (SF-539 CNS): > 100 µM | TGI (SK-OV-3 ovarian): > 100 µM | TGI (HL-60(TB) leukemia): > 100 µM | TGI (UO-31 renal): > 100 µM | TGI (CCRF-CEM leukemia): > 100 µM | TGI (OVCAR-8 ovarian): > 100 µM | TGI (SW-620 colon): > 100 µM | TGI (SK-MEL-2 melanoma): > 100 µM | TGI (HCC-2998 colon): > 100 µM | TGI (UACC-257 melanoma): > 100 µM | TGI (MDA-MB-231 breast): > 100 µM | TGI (NCI/ADR-RES ovarian): > 100 µM | TGI (MDA-MB-435): > 100 µM | TGI (HOP-62 NSCLC): > 100 µM | TGI (K-562 leukemia): > 100 µM | TGI (HOP-92 NSCLC): > 100 µM | TGI (COLO 205 colon): > 100 µM | TGI (T-47D breast): > 100 µM | TGI (UACC-62 melanoma): > 100 µM | TGI (786-0 renal): > 100 µM | TGI (OVCAR-4 ovarian): > 100 µM | TGI (NCI-H460 lung): > 100 µM | TGI (A498 renal): > 100 µM | TGI (ACHN renal): > 100 µM | TGI (RPMI-8226 leukemia): > 100 µM | TGI (EKVX NSCLC): > 100 µM | TGI (SNB-19 CNS): > 100 µM | TGI (SR leukemia): > 100 µM | TGI (U251 CNS): > 100 µM | TGI (NCI-H522 lung): > 100 µM | TGI (NCI-H226 lung): > 100 µM | TGI (MCF7 breast): > 100 µM | TGI (SNB-75 CNS): 99.7 µM | TGI (HT29 colon): > 100 µM | TGI (SN12C renal): > 100 µM | TGI (OVCAR-5 ovarian): > 100 µM | TGI (SK-MEL-28 melanoma): > 100 µM | TGI (CAKI-1 renal): > 100 µM | TGI (HS 578T breast): > 100 µM | TGI (M14 melanoma): > 100 µM | TGI (TK-10 renal): > 100 µM | TGI (SF-268 CNS): > 100 µM | TGI (MDA-N): > 100 µM | TGI (PC-3 prostate): > 100 µM | TGI (HCT-15 colon): > 100 µM | TGI (KM12 colon): > 100 µM

CCCCCCCCCCOC1C(C(O)CNCCCN(C)C)OC2OC3(CCCCC3)OC21 (configuration not stated)
TGI (A549 NSCLC): 11.7 µM | TGI (DU-145 prostate): 9.24 µM | TGI (NCI-H23 lung): 3.01 µM | TGI (SK-MEL-5 melanoma): 3.34 µM | TGI (MALME-3M melanoma): 3.61 µM | TGI (IGROV1 ovarian): 3.82 µM | TGI (MOLT-4 leukemia): 3.87 µM | TGI (SF-295 CNS): 3.52 µM | TGI (RXF 393 renal): 3.7 µM | TGI (HCT-116 colon): 3.53 µM | TGI (SK-OV-3 ovarian): 13.9 µM | TGI (HL-60(TB) leukemia): 3.59 µM | TGI (UO-31 renal): 4.45 µM | TGI (CCRF-CEM leukemia): 3.64 µM | TGI (OVCAR-8 ovarian): 4.18 µM | TGI (SW-620 colon): 3.24 µM | TGI (SK-MEL-2 melanoma): 4 µM | TGI (HCC-2998 colon): 4.46 µM | TGI (UACC-257 melanoma): 10.8 µM | TGI (MDA-MB-231 breast): 3.31 µM | TGI (NCI/ADR-RES ovarian): 8.87 µM | TGI (MDA-MB-435): 3.56 µM | TGI (HOP-62 NSCLC): 4.04 µM | TGI (K-562 leukemia): 3.47 µM | TGI (HOP-92 NSCLC): 5.33 µM | TGI (COLO 205 colon): 3.43 µM | TGI (T-47D breast): 5.42 µM | TGI (UACC-62 melanoma): 4.53 µM | TGI (786-0 renal): 3.37 µM | TGI (OVCAR-4 ovarian): 4.25 µM | TGI (LOX IMVI melanoma): 2.68 µM | TGI (NCI-H460 lung): 3.44 µM | TGI (ACHN renal): 8.09 µM | TGI (RPMI-8226 leukemia): 4.37 µM | TGI (EKVX NSCLC): 7.6 µM | TGI (SNB-19 CNS): 3.24 µM | TGI (SR leukemia): 0.739 µM | TGI (U251 CNS): 3.23 µM | TGI (NCI-H522 lung): 3.56 µM | TGI (NCI-H226 lung): 36.7 µM | TGI (MCF7 breast): 3.7 µM | TGI (SNB-75 CNS): 0.681 µM | TGI (HT29 colon): 3.12 µM | TGI (SN12C renal): 5.19 µM | TGI (OVCAR-5 ovarian): 3.71 µM | TGI (SK-MEL-28 melanoma): 3.1 µM | TGI (CAKI-1 renal): 4.21 µM | TGI (HS 578T breast): 6.53 µM | TGI (M14 melanoma): 3.55 µM | TGI (TK-10 renal): 6.55 µM | TGI (SF-268 CNS): 5.12 µM | TGI (OVCAR-3 ovarian): 3.59 µM | TGI (MDA-N): 3.37 µM | TGI (PC-3 prostate): 6.7 µM | TGI (HCT-15 colon): 3.21 µM | TGI (KM12 colon): 2.91 µM

O=[N+]([O-])C(=C1NCCN1)C(Cl)=C(Cl)Cl
TGI (A549 NSCLC): > 100 µM | TGI (DU-145 prostate): > 100 µM | TGI (NCI-H23 lung): > 100 µM | TGI (SK-MEL-5 melanoma): > 100 µM | TGI (MALME-3M melanoma): > 100 µM | TGI (IGROV1 ovarian): > 100 µM | TGI (MOLT-4 leukemia): > 100 µM | TGI (SF-295 CNS): > 100 µM | TGI (RXF 393 renal): > 100 µM | TGI (HCT-116 colon): > 100 µM | TGI (SF-539 CNS): > 100 µM | TGI (SK-OV-3 ovarian): > 100 µM | TGI (HL-60(TB) leukemia): > 100 µM | TGI (UO-31 renal): > 100 µM | TGI (CCRF-CEM leukemia): > 100 µM | TGI (OVCAR-8 ovarian): > 100 µM | TGI (SK-MEL-2 melanoma): > 100 µM | TGI (HCC-2998 colon): > 100 µM | TGI (UACC-257 melanoma): > 100 µM | TGI (MDA-MB-231 breast): > 100 µM | TGI (NCI/ADR-RES ovarian): > 100 µM | TGI (MDA-MB-435): > 100 µM | TGI (HOP-62 NSCLC): > 100 µM | TGI (K-562 leukemia): > 100 µM | TGI (COLO 205 colon): > 100 µM | TGI (T-47D breast): > 100 µM | TGI (UACC-62 melanoma): > 100 µM | TGI (786-0 renal): > 100 µM | TGI (OVCAR-4 ovarian): > 100 µM | TGI (LOX IMVI melanoma): > 100 µM | TGI (NCI-H460 lung): > 100 µM | TGI (A498 renal): > 100 µM | TGI (ACHN renal): > 100 µM | TGI (RPMI-8226 leukemia): > 100 µM | TGI (EKVX NSCLC): > 100 µM | TGI (SNB-19 CNS): > 100 µM | TGI (SR leukemia): > 100 µM | TGI (U251 CNS): > 100 µM | TGI (NCI-H522 lung): > 100 µM | TGI (NCI-H226 lung): > 100 µM | TGI (MCF7 breast): > 100 µM | TGI (HT29 colon): > 100 µM | TGI (SN12C renal): > 100 µM | TGI (OVCAR-5 ovarian): > 100 µM | TGI (SK-MEL-28 melanoma): > 100 µM | TGI (CAKI-1 renal): > 100 µM | TGI (HS 578T breast): > 100 µM | TGI (M14 melanoma): > 100 µM | TGI (TK-10 renal): > 100 µM | TGI (SF-268 CNS): > 100 µM | TGI (OVCAR-3 ovarian): > 100 µM | TGI (MDA-N): > 100 µM | TGI (PC-3 prostate): > 100 µM | TGI (HCT-15 colon): > 100 µM | TGI (KM12 colon): > 100 µM
